We go through 25 molecules from patent publication US10058550B2, “Methods of treating heart failure” (priority 2015, dated 2018).

This experiment deals with human APJ receptor (Homo sapiens (Human), UniProt P35414). In words: biochemical. In kind it is biochemical. As to conditions: read-out: Activity hAPJ SPA EC50 IP. A digest of the protocol: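 Membranes from CHO cells stably expressing cloned human APJ were incubated with WGA SPA beads in 20 mM HEPES pH 7.5, 5 mM MgCl2, 0.1% BSA, 200 mM NaCl and 3 μM GDP. Reaction started with 0.2 nM [35S]GTPγS ± ligands, 90 min at RT. EC50 obtained by non-linear regression as mean of independent experiments.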
Sequence of human APJ receptor (P35414 whole entry): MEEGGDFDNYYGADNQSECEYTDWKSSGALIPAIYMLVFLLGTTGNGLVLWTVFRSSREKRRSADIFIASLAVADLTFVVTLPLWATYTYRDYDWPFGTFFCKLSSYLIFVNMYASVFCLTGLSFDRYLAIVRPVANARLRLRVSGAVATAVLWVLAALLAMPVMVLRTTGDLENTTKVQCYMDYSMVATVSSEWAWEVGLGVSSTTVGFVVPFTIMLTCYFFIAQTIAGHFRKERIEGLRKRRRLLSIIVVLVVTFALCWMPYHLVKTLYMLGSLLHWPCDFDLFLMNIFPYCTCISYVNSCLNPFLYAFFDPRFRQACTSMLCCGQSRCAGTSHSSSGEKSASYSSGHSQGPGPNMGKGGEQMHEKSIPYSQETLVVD

`COc1cccc(-c2nnc(NS(=O)(=O)C(C)C)n2-c2c(OC)cccc2OC)n1` [Example 100.0, N-(4-(2,6-dimethoxyphenyl)-5-(6-methoxypyridin-2-yl)-4H-1,2,4-triazol-3-yl)propane-2-sulfonamide]: the concentration for a half-maximal effect (EC50) was found to be 110 nM.
As for `COc1cc(-c2nnc(NS(=O)(=O)[C@@H](C)[C@H](OC)c3ncc(C)cn3)n2-c2c(OC)cccc2OC)ccn1` [Example 101.0, (1R,2S)-N-(4-(2,6-dimethoxyphenyl)-5-(2-methoxypyridin-4-yl)-4H-1,2,4-triazol-3-yl)-1-methoxy-1-(5-methylpyrimidin-2-yl)propane-2-sulfonamide], the figure is 7 nM.
As for `COc1cccc(OC)c1-n1c(NS(=O)(=O)[C@@H](C)[C@H](OC)c2ncc(C)cn2)nnc1-c1ccncc1` [Example 102.0, (1R,2S)-N-(4-(2,6-dimethoxyphenyl)-5-(pyridin-4-yl)-4H-1,2,4-triazol-3-yl)-1-methoxy-1-(5-methylpyrimidin-2-yl)propane-2-sulfonamide], the figure is 18 nM.
As for `COc1cccc(OC)c1-n1c(NS(=O)(=O)[C@@H](C)[C@H](OC)c2ncc(C)cn2)nnc1-c1cccc(C)n1` [Example 103.0, (1R,2S)-N-(4-(2,6-dimethoxyphenyl)-5-(6-methylpyridin-2-yl)-4H-1,2,4-triazol-3-yl)-1-methoxy-1-(5-methylpyrimidin-2-yl)propane-2-sulfonamide], the figure is 0.51 nM.
For `COc1cccc(OC)c1-n1c(NS(=O)(=O)[C@@H](C)[C@H](OC)c2ncc(C)cn2)nnc1-c1ccnc(C)c1` [Example 104.0, (1R,2S)-N-(4-(2,6-dimethoxyphenyl)-5-(2-methylpyridin-4-yl)-4H-1,2,4-triazol-3-yl)-1-methoxy-1-(5-methylpyrimidin-2-yl)propane-2-sulfonamide], the 50% effective concentration (EC50) amounted to 2.4 nM.
As for `CCOc1cccc(-c2nnc(NS(=O)(=O)[C@@H](C)[C@H](C)c3ncc(F)cn3)n2-c2c(OC)cccc2OC)n1` [Example 161.0, (2S,3R)-N-(4-(2,6-dimethoxyphenyl)-5-(6-ethoxy-2-pyridinyl)-4H-1,2,4-triazol-3-yl)-3-(5-fluoro-2-pyrimidinyl)-2-butanesulfonamide], the figure is 0.062 nM; as for `COc1cccc(OC)c1-n1c(NS(=O)(=O)[C@@H](C)[C@H](C)c2ncc(F)cn2)nnc1-c1cccc(=O)[nH]1` [Example 168.0, (2S,3R)-N-(4-(2,6-dimethoxyphenyl)-5-(6-oxo-1,6-dihydro-2-pyridinyl)-4H-1,2,4-triazol-3-yl)-3-(5-fluoro-2-pyrimidinyl)-2-butanesulfonamide], 110 nM; as for `CCOc1cccc(-c2nnc(NS(=O)(=O)[C@@H](C)[C@H](OC)c3ncc(C)cn3)n2-c2c(OC)cccc2OC)n1` [Example 172.0, (1R,2S)-N-(4-(2,6-dimethoxyphenyl)-5-(6-ethoxypyridin-2-yl)-4H-1,2,4-triazol-3-yl)-1-methoxy-1-(5-methylpyrimidin-2-yl)propane-2-sulfonamide], 0.065 nM.
For `CCc1cccc(-c2nnc(NS(=O)(=O)[C@@H](C)[C@H](OC)c3ncc(C)cn3)n2-c2c(OC)cccc2OC)n1` [Example 174.0, (1R,2S)-N-(4-(2,6-dimethoxyphenyl)-5-(6-ethylpyridin-2-yl)-4H-1,2,4-triazol-3-yl)-1-methoxy-1-(5-methylpyrimidin-2-yl)propane-2-sulfonamide], the half-maximal effective concentration (EC50) is 0.2 nM.
As for `CCc1cccc(-c2nnc(NS(=O)(=O)[C@@H](C)[C@H](O)c3ncc(C)cn3)n2-c2c(OC)cccc2OC)n1` [Example 175.0, (1R,2S)-N-(4-(2,6-dimethoxyphenyl)-5-(6-ethylpyridin-2-yl)-4H-1,2,4-triazol-3-yl)-1-hydroxy-1-(5-methylpyrimidin-2-yl)propane-2-sulfonamide], the figure is 0.39 nM.
As to `CCc1cccc(-c2nnc(NS(=O)(=O)[C@@H](C)[C@H](C)c3ncc(C)cn3)n2-c2c(OC)cccc2OC)n1` [Example 176.0, (2S,3R)-N-(4-(2,6-dimethoxyphenyl)-5-(6-ethylpyridin-2-yl)-4H-1,2,4-triazol-3-yl)-3-(5-methylpyrimidin-2-yl)butane-2-sulfonamide], the EC50 came to 0.15 nM.
As for `COc1cc(C)cc(-c2nnc(NS(=O)(=O)[C@@H](C)[C@H](C)c3ncc(F)cn3)n2-c2c(OC)cccc2OC)n1` [Example 177.0, (2S,3R)-N-(4-(2,6-dimethoxyphenyl)-5-(6-methoxy-4-methylpyridin-2-yl)-4H-1,2,4-triazol-3-yl)-3-(5-fluoropyrimidin-2-yl)butane-2-sulfonamide], the figure is 0.12 nM; as for `COc1cc(C)cc(-c2nnc(NS(=O)(=O)[C@@H](C)[C@H](C)c3ncc(C)cn3)n2-c2c(OC)cccc2OC)n1` [Example 178.0, (2S,3R)-N-(4-(2,6-dimethoxyphenyl)-5-(6-methoxy-4-methylpyridin-2-yl)-4H-1,2,4-triazol-3-yl)-3-(5-methylpyrimidin-2-yl)butane-2-sulfonamide], 0.12 nM; as for `COc1cc(C)cc(-c2nnc(NS(=O)(=O)[C@@H](C)[C@H](OC)c3ncc(C)cn3)n2-c2c(OC)cccc2OC)n1` [Example 179.0, (1R,2S)-N-(4-(2,6-dimethoxyphenyl)-5-(6-methoxy-4-methylpyridin-2-yl)-4H-1,2,4-triazol-3-yl)-1-methoxy-1-(5-methylpyrimidin-2-yl)propane-2-sulfonamide], 4.8 nM.
As for `CCOc1cccc(-c2nnc(NS(=O)(=O)[C@@H](C)[C@H](C)c3ncc(C)cn3)n2-c2c(OC)cccc2OC)n1` [Example 180.0, (2S,3R)-N-(4-(2,6-dimethoxyphenyl)-5-(6-ethoxypyridin-2-yl)-4H-1,2,4-triazol-3-yl)-3-(5-methylpyrimidin-2-yl)butane-2-sulfonamide], the figure is 0.068 nM.
As for `COc1cccc(OC)c1-n1c(NS(=O)(=O)CCc2ccc(F)cc2C#N)nnc1-c1cncc(Cl)c1` [Example 181.0, N-(5-(5-chloro-3-pyridinyl)-4-(2,6-dimethoxyphenyl)-4H-1,2,4-triazol-3-yl)-2-(2-cyano-4-fluorophenyl)ethanesulfonamide], the figure is 12 nM; as for `COc1cccc(OC)c1-n1c(NS(=O)(=O)[C@@H](C)[C@H](C)c2ncc(F)cn2)nnc1-c1cccc(OCC(F)(F)F)n1` [Example 185.0, (2S,3R)-N-(4-(2,6-dimethoxyphenyl)-5-(6-(2,2,2-trifluoroethoxy)pyridin-2-yl)-4H-1,2,4-triazol-3-yl)-3-(5-fluoropyrimidin-2-yl)butane-2-sulfonamide], 0.12 nM.
Turning to `COc1cccc(OC)c1-n1c(NS(=O)(=O)[C@@H](C)[C@H](C)c2ncc(F)cn2)nnc1-c1cccc(OCCO)n1` [Example 186.0, (2S,3R)-N-(4-(2,6-dimethoxyphenyl)-5-(6-(2-hydroxyethoxy)pyridin-2-yl)-4H-1,2,4-triazol-3-yl)-3-(5-fluoropyrimidin-2-yl)butane-2-sulfonamide], the 50% effective concentration (EC50) came out at 0.12 nM.
As for `COc1cccc(OC)c1-n1c(NS(=O)(=O)[C@@H](C)[C@H](OC)c2ncc(C)cn2)nnc1-c1cccc(OCC(F)(F)F)n1` [Example 187.0, (1R,2S)-N-(4-(2,6-dimethoxyphenyl)-5-(6-(2,2,2-trifluoroethoxy)pyridin-2-yl)-4H-1,2,4-triazol-3-yl)-1-methoxy-1-(5-methylpyrimidin-2-yl)propane-2-sulfonamide], the figure is 0.14 nM; as for `COc1cccc(OC)c1-n1c(NS(=O)(=O)[C@@H](C)[C@H](OC)c2ncc(C)cn2)nnc1-c1cccc(OCCO)n1` [Example 188.0, (1R,2S)-N-(4-(2,6-dimethoxyphenyl)-5-(6-(2-hydroxyethoxy)pyridin-2-yl)-4H-1,2,4-triazol-3-yl)-1-methoxy-1-(5-methylpyrimidin-2-yl)propane-2-sulfonamide], 0.96 nM.
Regarding `COc1cccc(OC)c1-n1c(NS(=O)(=O)[C@@H](C)[C@H](C)c2ncc(F)cn2)nnc1-c1cccc(OCC(C)(C)O)n1` [Example 192.0, (2S,3R)-N-(4-(2,6-dimethoxyphenyl)-5-(6-(2-hydroxy-2-methylpropoxy)pyridin-2-yl)-4H-1,2,4-triazol-3-yl)-3-(5-fluoropyrimidin-2-yl)butane-2-sulfonamide], the concentration for a half-maximal effect (EC50) came out at 260 nM.
As for `COc1cccc(OC)c1-n1c(NS(=O)(=O)[C@@H](C)[C@H](OC)c2ncc(C)cn2)nnc1-c1cccc(OCC(C)(C)O)n1` [Example 193.0, (1R,2S)-N-(4-(2,6-dimethoxyphenyl)-5-(6-(2-hydroxy-2-methylpropoxy)pyridin-2-yl)-4H-1,2,4-triazol-3-yl)-1-methoxy-1-(5-methylpyrimidin-2-yl)propane-2-sulfonamide], the figure is 61 nM.
As for `COc1cccc(OC)c1-n1c(NS(=O)(=O)[C@@H](C)[C@H](C)c2ncc(F)cn2)nnc1-c1cccc(OCC(O)(C(F)(F)F)C(F)(F)F)n1` [Example 194.0, (2S,3R)-N-(4-(2,6-dimethoxyphenyl)-5-(6-(3,3,3-trifluoro-2-hydroxy-2-(trifluoromethyl)propoxy)pyridin-2-yl)-4H-1,2,4-triazol-3-yl)-3-(5-fluoropyrimidin-2-yl)butane-2-sulfonamide], the figure is 36 nM.
As for `CNc1cccc(-c2nnc(NS(=O)(=O)[C@@H](C)[C@H](OC)c3ncc(C)cn3)n2-c2c(OC)cccc2OC)n1` [Example 195.0, (1R,2S)-N-(4-(2,6-dimethoxyphenyl)-5-(6-(methylamino)pyridin-2-yl)-4H-1,2,4-triazol-3-yl)-1-methoxy-1-(5-methylpyrimidin-2-yl)propane-2-sulfonamide], the figure is 0.35 nM; as for `COCCOc1cccc(-c2nnc(NS(=O)(=O)[C@@H](C)[C@H](OC)c3ncc(C)cn3)n2-c2c(OC)cccc2OC)n1` [Example 196.0, (1R,2S)-N-(4-(2,6-dimethoxyphenyl)-5-(6-(2-methoxyethoxy)pyridin-2-yl)-4H-1,2,4-triazol-3-yl)-1-methoxy-1-(5-methylpyrimidin-2-yl)propane-2-sulfonamide], 3.4 nM.

The EC50 is the midpoint of the concentration-response curve.
